Measurements as given in patent US20110236886A1, “PATHOGENICITY DETERMINANTS WHICH CAN BE USED AS TARGETS FOR DEVELOPING MEANS FOR PREVENTING AND CONTROLLING BACTERIAL INFECTIONS AND/OR SYSTEMIC DISSEMINATION” (priority 2002, published 2011).

Columns and labels:
[1] = system: S. agalactiae NEM316; experiment: Disk diffusion sensitivity to cationic antimicrobial peptides, wild type strain; assay type: cell-based, Streptococcus agalactiae; conditions: blood agar plates, 18 hours at 37° C., disc content colistin 50 μg, polymixin B 10 μg
Experimental: (§1) The sensitivity of wild type S. agalactiae NEM316 and DltD mutant to cationic antimicrobial peptides was measured by using a disk diffusion methods. The 2 strains were grown on blood agar plates and incubated for 18 hours at 37° C. Each strain was tested using colistin (50 μg) and polymixin (10 μg) disks. Sensitivity or resistance of NEM316 strain and the DltD mutant to each compound was determined by the size of the growth inhibition area around disk.

[2] = system: DltD mutant of S. agalactiae NEM316; experiment: Disk diffusion sensitivity to cationic antimicrobial peptides, DltD mutant; assay type: cell-based, Streptococcus agalactiae; conditions: for Inhibition area (mm) Mutant DltD: blood agar plates, 18 hours at 37° C., disc content colistin 50 μg, polymixin B 10 μg; for Sensitivity of the DltD mutant to the peptide compared with wild type: result in words
Experimental: as §1

Substance | Inhibition area (mm) NEM316 [1] | Inhibition area (mm) Mutant DltD [2] | Sensitivity of the DltD mutant to the peptide compared with wild type [2]
colistin | 0 mm | 14 mm | increased sensitivity
polymyxin B [Polymixin B] | 0 mm | 14 mm | increased sensitivity
